Assay results from patent US4529593A, “Use of gallium salts to treat disorders of calcium homeostasis” (Sloan-Kettering Institute for Cancer Research, priority 1984, dated 1985).

Columns and labels:
[1] = system: bone mineral (metaphysis); assay: gallium incorporation into bone mineral, X-ray diffraction; type: in vivo, rats
Text: Conceivably, gallium promotes or stabilizes crystal structure to produce matrix with more crystalline hydroxyapatite, or the drug promotes growth rather than dissolution of smaller crystallites.

animal and human tumors = conditions: certain animal and human tumors; Warrell 1983, Adamson 1975; cited from earlier work
kidney [2] = conditions: Leyland-Jones et al 1983; cited from earlier work
[3] = intravenous infusion, clinical dose; Kelsen et al 1980; cited from earlier work
explanted bones = assay: PGE2 release from explanted fetal rat bones; type: cell-based
kidney [4] = assay: clinical toxicity of gallium (kidney damage, long-term infusion); type: in vivo, patients; conditions: printed 22+ months
Text: As with most anticancer drugs, gallium can potentially cause serious toxicity. The most serious side-effect being kidney damage. […] Furthermore, the anti bone-resorptive effects of gallium nitrate are achieved with less than 25-50% of the anticancer dose. Thus the method should retain safety and efficacy for prolonged periods of time.

[5] = system: cancer-related hypercalcemia; assay: treatment of cancer-related hypercalcemia with gallium nitrate; type: in vivo, patients; conditions: for Serum calcium, Post-Treatment: 100 mg/sq m/d × 5 d; for Total Serum Calcium, Post-Treatment: 200 mg/sq m/d × 5-7 d
Experimental: Summary: In the initial study, gallium nitrate was used for the treatment of 10 patients with cancer-related hypercalcemia. The daily dose of drug was 200 mg/sq m administered as a continuous infusion for durations ranging from 5-7 days. The diagnoses of this patient population and the change in total serum calcium concentration in response to this therapy are presented in Table 4a.
The subsequent increase of their disease was not accompanied by an increase in serum calcium which indicates a persistent control of the metabolic problem despite lack of control of the underlying cancer. All other patients who received the drug manifested progressive cancer despite control of the hypercalcemia. […] In a subsequent study, we further reduced the daily dose of gallium nitrate to 100 mg/sq m administered for 5 days. At a lower dose, 5 of 8 patients were normalized (Table 4b). These preliminary clinical results reflect our preclinical studies previously detailed, namely that there exists a distinct dose-response relation to the anti-calcium effect (Warrell, R. P. Jr, Bockman, R. S. et al, J. Clin. Invest. 73:1487 (1984 )).

[6] = oral absorption and excretion of gallium nitrate in the dog; type: in vivo; conditions: for plasma gallium concentration: single oral dose 1200 mg by gavage
Experimental: To evaluate the oral absorption and excretion of gallium nitrate, a concentrated solution of the drug was administered to a dog by oral gavage (total dose=1200 mg). Sequential plasma samples and the next 24 hour urinary volume were collected and assayed for gallium concentration by a flameless atomic absorption sprectrophotometer (Kelsen, D. P. et al, Cancer 46:2009, 1980).
The subsequent 24 hour urine volume was 183 ml and it contained a total amount of 1.13 mg of elemental gallium. Assuming similar patterns of excretion in humans and dogs, it is estimated that approximately 0.5-2% of an orally administered dose is absorbed and excreted into the urine.

[7] = system: bone cells (particularly osteoclasts); assay: histology of cultured rat bones (toxicity to bone cells); type: cell-based
Text: Samples of cultured rat bones used in experiments previously described herein were fixed, decalcified and stained with hematoxylin and eosin. Histologic sections were examined by light microscopy.

fetal rat bones = assay: 45-Ca++ release (bone resorption) from explants of fetal rat bones stimulated by PTH or lymphokine (OAF); type: cell-based; conditions: for 45-Ca++ release after stimulation by PTH or lymphokine (dose dependence): 48 hrs preincubation; for 45-Ca++ release expt'l / 45-Ca++ release control (E/C): control 1.00 ± .06; for 45-Ca++ release, gallium alone: without added PTH or lymphokine, vs control bones
Experimental: The effects of gallium nitrate on bone resorption in vitro were studied using explants of fetal rat bones (Bockman, R. S. and Repo, M. A., J Exp Med 154:529, 1981). Pregnant rats were injected with 0.2-0.4 mCi of 45-CaC12 on the 18th day of gestation. After 2 days of bone mineralization in utero, the radii and ulnae of fetal rats were explanted and placed on stainless steel rafts in BGJ media. Calcium releases from bone was stimulated by the addition of bovine PTH (2.0 microM, final concentration)or a lymphokine (OAF) preparation (10% of final volume). Gallium nitrate was added to the culture media at final concentration of 1, 5 and 10 mcg/ml simultaneously with--and 18 or 48 hours prior to--the addition of the bone-resorbing factors. After 48 hours of exposure to lymphokine or PTH, calcium release was determined by counting the supernatant media in a liquid scintillation counter. Data were expressed as the ratio of calcium release in counts per minute (cpm) of the experimental bone (treated or untreated with gallium nitrate and a resorbing factor) to cpm release by a paired control bone (treated or untreated with gallium nitrate) [cpm experimental/cpm control=E/C] Forty-nine bones were used to establish control values; 4-22 bones were used to obtain each of the experimental points. […]

[8] = 48 h preincubation, 1, 5 and 10 mcg/ml

Compound: O=[N+]([O-])[O-].O=[N+]([O-])[O-].O=[N+]([O-])[O-].[Ga+3] [gallium nitrate]
- crystal size in metaphyseal-derived particles (X-ray diffraction) ([1]; gallium treated animals vs controls): marked increase in crystal size
- gallium incorporation into bone ([1]; rats treated with gallium nitrate): incorporated into the bone metaphysis where more active bone mineral turnover was occurring and into the metabolically more active crystalline pool
- anticancer activity (animal and human tumors): modest anticancer activity
- nephrotoxicity (kidney [2]): generally reversible and that it is not cumulative
- steady-state plasma gallium concentration [3]: 0.9 to 2.0 µg/mL
- PGE2 release from explanted bones (explanted bones; 10 mcg/ml, 24-48 h, vs non-treated bones): no change in PGE2 over control
- PGE2 release (explanted bones; [8]): no significant change in PGE2 release
- PGE2 (explanted bones; PTH, gallium 1 mcg/ml, 48 h preincubation, 0 gallium: 1.4, control 1.2): 2.2 ng/bone
- PGE2 (explanted bones; PTH, gallium 5 mcg/ml, 48 h preincubation, 0 gallium: 1.4, control 1.2): 1.3 ng/bone
- PGE2 (explanted bones; PTH, gallium 10 mcg/ml, 48 h preincubation, 0 gallium: 1.4, control 1.2): 3.9 ng/bone
- PGE2 release of gallium treated bones on exposure to lymphokine, but not PTH (explanted bones; gallium treated bones exposed to lymphokine): significant increase in PGE2 release
- PGE2 (explanted bones; lymphokine, gallium 1 mcg/ml, 48 h preincubation, 0 gallium: 17.1, control 2.0): 17.4 ng/bone
- PGE2 (explanted bones; lymphokine, gallium 5 mcg/ml, 48 h preincubation, 0 gallium: 17.1, control 2.0): 16.7 ng/bone
- PGE2 (explanted bones; lymphokine, gallium 10 mcg/ml, 48 h preincubation, 0 gallium: 17.1, control 2.0): 15.1 ng/bone
- duration of intermittent high-dose infusions without serious toxicity (kidney [4]): ≥ 22 months
- patients normalized ([5]; 100 mg/sq m for 5 days): 5 of 8
- Serum calcium, Post-Treatment ([5]; Patient 1, Breast, pre-treatment 13.9): 11.3 mg/dL
- Serum calcium, Post-Treatment ([5]; Patient 2, Anus, pre-treatment 12.7): 6.3 mg/dL
- Serum calcium, Post-Treatment ([5]; Patient 3, Kidney, pre-treatment 14.3): 12.0 mg/dL
- Serum calcium, Post-Treatment ([5]; Patient 4, Breast, pre-treatment 14.5): 8.7 mg/dL
- Serum calcium, Post-Treatment ([5]; Patient 5, Pancreas, pre-treatment 14.6): 10.0 mg/dL
- Serum calcium, Post-Treatment ([5]; Patient 6, Myeloma, pre-treatment 15.0): 13.7 mg/dL
- Serum calcium, Post-Treatment ([5]; Patient 7, Lung, pre-treatment 13.0): 10.8 mg/dL
- Serum calcium, Post-Treatment ([5]; Patient 8, Breast, pre-treatment 17.0): 9.0 mg/dL
- response (serum calcium concentration) ([5]; 200 mg/sq m/d continuous infusion 5-7 days, 10 patients): all patients responded to this treatment by a reduction in serum calcium concentration to normal (and frequently sub-normal) values
- Total Serum Calcium, Post-Treatment ([5]; Patient 1, Breast, pre-treatment 13.8): 8.9 mg/dL
- Total Serum Calcium, Post-Treatment ([5]; Patient 2, Breast, pre-treatment 15.2): 8.5 mg/dL
- Total Serum Calcium, Post-Treatment ([5]; Patient 3, Lymphoma, pre-treatment 15.6): 6.6 mg/dL
- Total Serum Calcium, Post-Treatment ([5]; Patient 4, Head & Neck, pre-treatment 12.3): 8.5 mg/dL
- Total Serum Calcium, Post-Treatment ([5]; Patient 5, Breast, pre-treatment 14.4): 7.7 mg/dL
- Total Serum Calcium, Post-Treatment ([5]; Patient 6, Lymphoma, pre-treatment 15.6): 8.6 mg/dL
- Total Serum Calcium, Post-Treatment ([5]; Patient 7, Lung, pre-treatment 12.5): 7.0 mg/dL
- Total Serum Calcium, Post-Treatment ([5]; Patient 8, Penis, pre-treatment 12.3): 9.3 mg/dL
- Total Serum Calcium, Post-Treatment ([5]; Patient 9, Head & Neck, pre-treatment 13.5): 7.8 mg/dL
- Total Serum Calcium, Post-Treatment ([5]; Patient 10, Lung, pre-treatment 13.7): 9.3 mg/dL
- size of a lymphomatous mass ([5]; 200 mg/sq m/d, Patient 5, followed by progression and death): transient decrease in the size of a lymphomatous mass
- anti-cancer effect associated with hypocalcemic effect ([5]; 200 mg/sq m/d, all patients except Patient 5): not associated with any anti-cancer effect
- oral gallium nitrate dose estimated to achieve effective plasma levels ([6]; 70 kg human, extrapolated from dog data): 0.5-20 gms
- toxic reaction ([6]; dog, oral 1200 mg): no toxic reaction
- total amount of elemental gallium in urine ([6]; dog, oral 1200 mg, 24 hour urine): 1.13 mg
- plasma gallium concentration ([6]; dog, 0 hrs): 0 µg/mL
- plasma gallium concentration ([6]; dog, 0.25 hrs): 0.5 µg/mL
- plasma gallium concentration ([6]; dog, 0.5 hrs): 1.25 µg/mL
- plasma gallium concentration ([6]; dog, 1 hr): 1.37 µg/mL
- plasma gallium concentration ([6]; dog, 2 hrs): 2.75 µg/mL
- plasma gallium concentration ([6]; dog, 4 hrs): 2.0 µg/mL
- plasma gallium concentration ([6]; dog, 24 hrs): 0.75 µg/mL
- lethal toxicity to bone cells ([7]; pharmacologic concentrations): do not cause lethal toxicity to bone cells
- cellular components (histology) ([7]; pharmacologic concentrations, 72 hrs, compared with mithramycin-treated bones): normal cellular components
- bone cell morphology ([7]; relative to untreated control bones, 72 hrs): no differences in bone cell morphology
- 45-Ca++ release after stimulation by PTH or lymphokine (dose dependence) (fetal rat bones; 1 mcg/ml): no significant change
- 45-Ca++ release after stimulation by PTH or lymphokine (dose dependence) (fetal rat bones; 5 and 10 mcg/ml, P less than 0.025): significant and dose-related reductions
- 45-Ca++ release (time dependence) (fetal rat bones; 10 mcg/ml simultaneously with (time 0) or 18 hrs preceding PTH or lymphokine): the reduction was not statistically significant
- 45-Ca++ release (fetal rat bones; [8]): dose dependent decrease
- 45-Ca++ release expt'l / 45-Ca++ release control (E/C) (fetal rat bones; PTH-stimulated, gallium 1 mcg/ml, 48 h preincubation, 0 gallium: 1.21 ± 0.15): 1.24
- 45-Ca++ release expt'l / 45-Ca++ release control (E/C) (fetal rat bones; PTH-stimulated, gallium 5 mcg/ml, 48 h preincubation, 0 gallium: 1.21 ± 0.15): 1.08
- 45-Ca++ release expt'l / 45-Ca++ release control (E/C) (fetal rat bones; PTH-stimulated, gallium 10 mcg/ml, 48 h preincubation, 0 gallium: 1.21 ± 0.15): 0.99
- 45-Ca++ release expt'l / 45-Ca++ release control (E/C) (fetal rat bones; lymphokine-stimulated, gallium 1 mcg/ml, 48 h preincubation, 0 gallium: 1.59 ± .1): 1.54 ± .16
- 45-Ca++ release expt'l / 45-Ca++ release control (E/C) (fetal rat bones; lymphokine-stimulated, gallium 5 mcg/ml, 48 h preincubation, 0 gallium: 1.59 ± .1): 1.21 ± .04
- 45-Ca++ release expt'l / 45-Ca++ release control (E/C) (fetal rat bones; lymphokine-stimulated, gallium 10 mcg/ml, 48 h preincubation, 0 gallium: 1.59 ± .1): 1.23 ± .04
- lymphokine-induced 45-Ca++ release (time dependence) (fetal rat bones; pre-incubation 48 hours preceding lymphokine, 10 mcg/ml): highly significant reduction
- calcium release induced by PTH and by factor similar to OAF (fetal rat bones; summary, inhibition time- and dose-dependent): inhibits calcium release induced by both of these substances
- 45-Ca++ release, gallium alone (fetal rat bones): No increase in bone calcium release
- 45-Ca++ release, gallium alone (fetal rat bones; listed as gallium): did not have any effect on 45-Ca++ release
